Experimental data taken from ChEMBL document CHEMBL1201862, “PubChem BioAssay data set” (2004).
Active and inactive are the calls of the source.

Tests used:
[1] = molecular target: T1, Ubiquitin-conjugating enzyme E2 N (Homo sapiens, UniProt P61088); assay type: functional;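 also: Dose-response confirmation in a TR-FRET assay detecting UBC13-driven polyubiquitin chain formation, inhibition measured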
T1 sequence (P61088 whole entry): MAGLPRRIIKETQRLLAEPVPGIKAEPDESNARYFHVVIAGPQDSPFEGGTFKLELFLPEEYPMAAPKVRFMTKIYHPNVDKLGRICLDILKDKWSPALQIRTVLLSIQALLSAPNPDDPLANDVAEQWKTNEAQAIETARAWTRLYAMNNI

HEK293 [2] = experiment: inhibition of NOD1-driven NF-kB reporter – cell-based, luminescence, uHTS, primary screen (AID 1578); assay type: functional; details: Homo sapiens
HEK293 [3] = experiment: cells; assay type: functional, cell-based; details: Homo sapiens
HEK293 [4] = experiment: cells; assay type: functional, cell-based; details: Homo sapiens; remark: listed apart in the source
[5] = molecular target: Nucleotide-binding oligomerization domain-containing protein 2 (Homo sapiens, UniProt Q9HC29); experiment: inhibition of NOD2-driven NF-kB reporter – cell-based, luminescence, uHTS, HEK293 (AID 1566); assay type: functional
HEK293 [6] = experiment: NOD2 signaling inhibitors in MDP-stimulated cells, cell-based, uHTS, luminescence (AID 2001); assay type: functional; details: Homo sapiens
[7] = Trypanosoma cruzi growth suppression in host cells – NIH3T3 host cells, beta-gal luminescence, confirmation (AID 2044); assay type: functional, cell-based;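 also: intracellular parasites grown in NIH/3T3 mouse fibroblasts as host cells; luminescent beta-galactosidase reporter signal from transgenic T. cruzi replicating inside host cells; inhibitors lower the luminescence signal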
HEK293 [8] = experiment: cells; assay type: functional, cell-based; details: Homo sapiens; remark: listed apart in the source
[9] = NIH3T3 cell viability loss – ATP luminescence, mouse fibroblasts, counter-screen, dose response (AID 2010); assay type: functional, cell-based;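 also: cells exposed to compound for about 90 hours before reading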
[10] = molecular target: T2, Short transient receptor potential channel 4 (Mus musculus, UniProt Q9QUQ5); experiment: calcium entry via TRPC4 opening agents – cell-based, HEK293 TRPC4/mu-opioid, Fluo-4 calcium, dose response (AID 434937); assay type: functional
T2 sequence (Q9QUQ5 whole entry): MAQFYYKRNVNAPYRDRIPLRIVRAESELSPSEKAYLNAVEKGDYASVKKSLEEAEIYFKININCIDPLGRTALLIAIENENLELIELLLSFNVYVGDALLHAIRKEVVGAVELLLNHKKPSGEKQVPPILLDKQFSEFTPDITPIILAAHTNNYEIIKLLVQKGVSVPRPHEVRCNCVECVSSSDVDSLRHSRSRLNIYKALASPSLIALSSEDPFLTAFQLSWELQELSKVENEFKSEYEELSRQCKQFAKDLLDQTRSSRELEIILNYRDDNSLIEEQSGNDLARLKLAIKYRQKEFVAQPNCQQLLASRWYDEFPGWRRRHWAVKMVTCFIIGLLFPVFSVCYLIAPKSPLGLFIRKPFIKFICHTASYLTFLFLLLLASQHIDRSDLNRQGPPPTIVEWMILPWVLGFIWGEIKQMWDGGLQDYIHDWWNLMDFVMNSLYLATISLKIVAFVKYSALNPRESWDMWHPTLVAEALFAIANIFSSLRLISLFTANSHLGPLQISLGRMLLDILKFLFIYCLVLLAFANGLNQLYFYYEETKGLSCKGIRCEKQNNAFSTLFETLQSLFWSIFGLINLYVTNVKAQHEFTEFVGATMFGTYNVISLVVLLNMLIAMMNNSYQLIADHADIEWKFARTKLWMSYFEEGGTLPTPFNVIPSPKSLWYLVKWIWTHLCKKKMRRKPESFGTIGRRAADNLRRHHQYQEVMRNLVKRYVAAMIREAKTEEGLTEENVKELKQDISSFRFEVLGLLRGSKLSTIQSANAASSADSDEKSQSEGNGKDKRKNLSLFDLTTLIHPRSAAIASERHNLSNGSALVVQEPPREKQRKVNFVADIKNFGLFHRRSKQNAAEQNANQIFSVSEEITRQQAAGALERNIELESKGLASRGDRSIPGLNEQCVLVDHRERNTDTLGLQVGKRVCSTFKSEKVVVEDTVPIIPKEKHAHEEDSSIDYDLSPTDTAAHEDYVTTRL

[11] = molecular target: T3, Low molecular weight phosphotyrosine protein phosphatase (Homo sapiens, UniProt P24666); assay type: functional; details: read-out: IC50_Mean;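 also: Dose-response confirmation assay measuring inhibition of LMPTP enzyme activity by fluorescence intensity read-out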
T3 sequence (P24666 whole entry): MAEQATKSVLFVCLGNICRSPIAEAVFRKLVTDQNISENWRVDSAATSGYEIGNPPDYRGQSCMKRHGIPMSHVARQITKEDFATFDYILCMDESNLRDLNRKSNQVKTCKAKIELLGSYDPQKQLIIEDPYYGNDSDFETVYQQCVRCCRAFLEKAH

[12] = viability of uninfected HEp-2 cells – cell-based, HTS, cytotoxicity control for RSV inhibitor project, dose response (AID 2410); assay type: functional; details: human respiratory syncytial virus
Vero = experiment: cells; assay type: functional, cell-based; details: Chlorocebus sabaeus
Estrogen receptor beta [13] = molecular target: T4, Estrogen receptor beta (Homo sapiens, UniProt Q92731);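 also: recombinant ER-beta bound to coactivator SRC1 peptide in presence of estradiol agonist; inhibitors block coactivator peptide binding and lower the FRET signal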
Estrogen receptor beta [14] = molecular target: T4, Estrogen receptor beta; experiment: blockers of SRC-3 recruitment to ERβ – biochemical, ELISA, streptavidin-HRP readout, orthogonal assay, confirmation (AID 1060)
[15] = molecular target: Ras and Rab interactor 1/Tyrosine-protein kinase ABL1 (Homo sapiens, UniProt P00519+Q13671); assay type: functional;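 also: biochemical TR-FRET dose-response test measuring inhibition of binding between Rin1 and Abl proteins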
[16] = molecular target: Glucose-6-phosphate 1-dehydrogenase (Homo sapiens, UniProt P11413); experiment: inhibition of Homo sapiens G6PD, dose series – biochemical, fluorescence, selectivity assay for P. falciparum G6PD inhibitor project, dose response (AID 504792); assay type: functional
[17] = system: Streptococcus sp. 'group A'; experiment: Streptococcus pyogenes SK(-)GAS viability under kanamycin – luminescence, BacTiterGlo, confirmation, counter-screen for streptokinase expression inhibitor project, dose response (AID 1900); assay type: functional, organism-based
Streptokinase A = molecular target: T5, Streptokinase A (Streptococcus pyogenes serotype M1, UniProt P10520); experiment: viability-normalized secreted streptokinase activity reduction – plasminogen activation absorbance, OD405, dose response (AID 1914); assay type: functional, Streptococcus pyogenes M1 GAS;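 also: secreted streptokinase activity via plasminogen activation per viability signal from cell pellet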
T5 sequence (P10520 whole entry): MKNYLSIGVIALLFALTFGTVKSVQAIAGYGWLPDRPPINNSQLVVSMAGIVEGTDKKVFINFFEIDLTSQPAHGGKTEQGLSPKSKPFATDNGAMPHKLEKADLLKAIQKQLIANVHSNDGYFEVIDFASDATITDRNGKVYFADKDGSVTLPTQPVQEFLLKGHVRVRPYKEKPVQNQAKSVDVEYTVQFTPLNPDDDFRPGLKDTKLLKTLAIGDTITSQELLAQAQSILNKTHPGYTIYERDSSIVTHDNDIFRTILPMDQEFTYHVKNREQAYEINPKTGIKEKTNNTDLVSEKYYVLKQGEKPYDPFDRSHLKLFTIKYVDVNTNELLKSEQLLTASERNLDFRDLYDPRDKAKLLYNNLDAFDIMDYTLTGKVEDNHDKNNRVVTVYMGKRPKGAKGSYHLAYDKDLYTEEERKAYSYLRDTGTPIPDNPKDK

Streptococcus = experiment: GAS UMAA2166 growth inhibition – luminescence, BacTiterGlo, counter-screen for streptokinase expression inhibitor project, dose response (AID 1915); assay type: functional, organism-based;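 also: potency for reduction of bacterial viability or growth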
X-box-binding protein 1 = molecular target: T6, X-box-binding protein 1 (Homo sapiens, UniProt P17861); assay type: functional, Cricetulus griseus;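 also: confirmatory dose-response counter-screen serving a CHOP assay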
T6 sequence (P17861 whole entry): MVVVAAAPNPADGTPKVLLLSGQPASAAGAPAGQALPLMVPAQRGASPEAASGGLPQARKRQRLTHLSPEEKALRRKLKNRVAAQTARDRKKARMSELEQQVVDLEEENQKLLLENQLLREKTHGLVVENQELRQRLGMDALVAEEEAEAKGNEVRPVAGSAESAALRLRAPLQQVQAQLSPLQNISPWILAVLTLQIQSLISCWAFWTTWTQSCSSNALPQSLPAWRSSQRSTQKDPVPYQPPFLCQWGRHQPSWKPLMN

[18] = molecular target: T7, Heat shock factor protein 1 (Mus musculus, UniProt P38532); experiment: enhancement of HSF1-driven luciferase signal – cell-based, NIH3T3, luminescence, dose retest, confirmation (AID 435004); assay type: functional;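 also: stress induced by proteasome inhibitor MG132 added 30 min after compound; luciferase reporter driven by HSF1 response element in NIH3T3 cells; actives raise luminescence as potentiators of the MG132 stress response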
T7 sequence (P38532 whole entry): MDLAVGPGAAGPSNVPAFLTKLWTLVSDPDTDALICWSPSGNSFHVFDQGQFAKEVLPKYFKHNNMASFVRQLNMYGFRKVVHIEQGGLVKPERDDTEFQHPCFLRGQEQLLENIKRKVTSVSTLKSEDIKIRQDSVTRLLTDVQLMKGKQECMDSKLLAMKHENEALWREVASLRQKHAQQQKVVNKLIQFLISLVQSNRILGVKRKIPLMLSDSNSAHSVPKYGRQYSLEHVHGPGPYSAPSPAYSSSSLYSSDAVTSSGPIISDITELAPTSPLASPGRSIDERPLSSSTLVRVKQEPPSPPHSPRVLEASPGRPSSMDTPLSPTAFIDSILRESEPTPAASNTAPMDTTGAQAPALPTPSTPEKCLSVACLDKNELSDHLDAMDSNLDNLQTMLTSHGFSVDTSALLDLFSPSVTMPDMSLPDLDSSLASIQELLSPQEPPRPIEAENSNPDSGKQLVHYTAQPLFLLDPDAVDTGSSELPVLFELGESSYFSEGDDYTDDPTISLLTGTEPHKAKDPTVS

T4 sequence (Q92731 whole entry): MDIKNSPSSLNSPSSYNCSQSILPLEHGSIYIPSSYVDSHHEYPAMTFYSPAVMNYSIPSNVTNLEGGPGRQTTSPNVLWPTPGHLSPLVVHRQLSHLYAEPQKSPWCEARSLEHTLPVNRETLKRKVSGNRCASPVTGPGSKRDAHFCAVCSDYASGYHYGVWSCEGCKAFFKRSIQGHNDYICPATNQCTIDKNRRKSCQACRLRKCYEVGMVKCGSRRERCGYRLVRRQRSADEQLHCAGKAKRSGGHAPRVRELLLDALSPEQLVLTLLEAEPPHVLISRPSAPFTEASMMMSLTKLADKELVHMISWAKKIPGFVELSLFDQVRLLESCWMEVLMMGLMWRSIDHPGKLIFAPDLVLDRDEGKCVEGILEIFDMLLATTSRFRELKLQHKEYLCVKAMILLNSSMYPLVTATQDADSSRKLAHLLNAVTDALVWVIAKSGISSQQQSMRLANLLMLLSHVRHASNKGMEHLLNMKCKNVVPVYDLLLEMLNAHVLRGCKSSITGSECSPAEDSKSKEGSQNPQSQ
Nucleotide-binding oligomerization domain-containing protein 2, sequence (Q9HC29 whole entry, the tested form may be a part): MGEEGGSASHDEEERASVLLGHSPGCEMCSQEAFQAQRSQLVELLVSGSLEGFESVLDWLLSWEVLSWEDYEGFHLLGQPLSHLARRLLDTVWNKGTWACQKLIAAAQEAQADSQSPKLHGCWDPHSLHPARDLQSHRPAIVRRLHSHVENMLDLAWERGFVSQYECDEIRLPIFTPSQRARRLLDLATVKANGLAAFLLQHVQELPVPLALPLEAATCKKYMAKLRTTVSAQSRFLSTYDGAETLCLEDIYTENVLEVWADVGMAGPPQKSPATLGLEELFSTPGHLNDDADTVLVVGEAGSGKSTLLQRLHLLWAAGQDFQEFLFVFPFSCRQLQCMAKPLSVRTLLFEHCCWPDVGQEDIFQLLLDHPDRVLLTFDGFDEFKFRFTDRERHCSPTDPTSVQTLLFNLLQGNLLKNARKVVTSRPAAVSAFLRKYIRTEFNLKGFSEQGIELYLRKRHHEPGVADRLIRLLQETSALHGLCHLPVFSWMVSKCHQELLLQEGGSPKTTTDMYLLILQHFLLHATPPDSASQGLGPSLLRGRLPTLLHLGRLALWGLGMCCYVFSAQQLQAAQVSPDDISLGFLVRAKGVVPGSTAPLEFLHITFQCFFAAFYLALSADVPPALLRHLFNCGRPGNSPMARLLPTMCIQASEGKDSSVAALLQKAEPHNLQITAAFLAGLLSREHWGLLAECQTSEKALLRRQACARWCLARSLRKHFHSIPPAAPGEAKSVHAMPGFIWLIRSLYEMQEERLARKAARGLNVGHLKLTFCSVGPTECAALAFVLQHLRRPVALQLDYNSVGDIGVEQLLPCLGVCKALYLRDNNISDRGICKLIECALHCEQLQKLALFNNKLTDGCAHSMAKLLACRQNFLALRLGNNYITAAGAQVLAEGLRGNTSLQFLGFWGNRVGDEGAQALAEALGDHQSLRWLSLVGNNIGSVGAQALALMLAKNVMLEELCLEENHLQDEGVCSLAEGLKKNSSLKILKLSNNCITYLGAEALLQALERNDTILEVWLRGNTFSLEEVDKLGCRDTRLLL
Glucose-6-phosphate 1-dehydrogenase, sequence (P11413 whole entry): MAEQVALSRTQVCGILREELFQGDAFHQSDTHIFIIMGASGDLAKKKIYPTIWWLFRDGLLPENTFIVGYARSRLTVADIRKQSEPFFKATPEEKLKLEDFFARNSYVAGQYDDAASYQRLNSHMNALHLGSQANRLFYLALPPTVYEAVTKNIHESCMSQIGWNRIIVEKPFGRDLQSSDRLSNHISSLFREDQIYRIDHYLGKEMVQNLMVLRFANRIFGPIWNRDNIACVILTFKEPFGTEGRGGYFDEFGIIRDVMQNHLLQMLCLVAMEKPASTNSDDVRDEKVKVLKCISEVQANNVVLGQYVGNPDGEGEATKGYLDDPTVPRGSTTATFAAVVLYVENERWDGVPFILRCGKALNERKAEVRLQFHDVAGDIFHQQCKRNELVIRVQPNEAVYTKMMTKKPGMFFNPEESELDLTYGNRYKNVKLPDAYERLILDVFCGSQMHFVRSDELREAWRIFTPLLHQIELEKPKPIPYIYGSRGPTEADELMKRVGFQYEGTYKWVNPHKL
Ras and Rab interactor 1/Tyrosine-protein kinase ABL1, sequence (P00519 whole entry): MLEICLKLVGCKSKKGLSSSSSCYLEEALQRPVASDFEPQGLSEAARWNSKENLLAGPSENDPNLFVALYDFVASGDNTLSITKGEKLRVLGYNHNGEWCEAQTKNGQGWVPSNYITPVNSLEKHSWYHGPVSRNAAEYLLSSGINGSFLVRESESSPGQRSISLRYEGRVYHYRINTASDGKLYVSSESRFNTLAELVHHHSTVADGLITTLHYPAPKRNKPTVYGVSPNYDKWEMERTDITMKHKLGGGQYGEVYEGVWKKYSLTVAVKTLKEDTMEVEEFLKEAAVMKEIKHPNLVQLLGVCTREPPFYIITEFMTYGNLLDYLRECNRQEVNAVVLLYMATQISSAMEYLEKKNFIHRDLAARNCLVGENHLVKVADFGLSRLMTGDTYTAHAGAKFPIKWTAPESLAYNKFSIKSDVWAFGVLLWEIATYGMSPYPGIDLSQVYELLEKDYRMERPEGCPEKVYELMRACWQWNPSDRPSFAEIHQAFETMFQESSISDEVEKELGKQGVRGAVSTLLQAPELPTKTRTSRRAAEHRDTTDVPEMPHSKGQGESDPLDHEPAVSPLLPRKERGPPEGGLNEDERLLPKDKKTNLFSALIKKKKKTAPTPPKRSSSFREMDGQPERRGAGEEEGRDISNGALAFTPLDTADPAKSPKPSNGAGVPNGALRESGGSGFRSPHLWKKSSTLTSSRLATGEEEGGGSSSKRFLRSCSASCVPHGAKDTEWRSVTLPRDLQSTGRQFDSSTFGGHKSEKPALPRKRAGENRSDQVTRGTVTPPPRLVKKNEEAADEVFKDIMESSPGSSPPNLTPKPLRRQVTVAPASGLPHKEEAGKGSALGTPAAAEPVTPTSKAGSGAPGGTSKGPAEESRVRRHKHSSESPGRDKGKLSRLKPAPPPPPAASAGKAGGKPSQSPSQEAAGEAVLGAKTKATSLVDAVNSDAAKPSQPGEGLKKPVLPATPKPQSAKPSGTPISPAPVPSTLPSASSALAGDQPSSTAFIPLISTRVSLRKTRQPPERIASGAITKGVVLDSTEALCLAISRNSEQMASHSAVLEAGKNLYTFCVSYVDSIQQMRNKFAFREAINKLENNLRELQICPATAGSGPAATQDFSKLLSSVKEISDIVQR
Ras and Rab interactor 1/Tyrosine-protein kinase ABL1, sequence (Q13671 whole entry): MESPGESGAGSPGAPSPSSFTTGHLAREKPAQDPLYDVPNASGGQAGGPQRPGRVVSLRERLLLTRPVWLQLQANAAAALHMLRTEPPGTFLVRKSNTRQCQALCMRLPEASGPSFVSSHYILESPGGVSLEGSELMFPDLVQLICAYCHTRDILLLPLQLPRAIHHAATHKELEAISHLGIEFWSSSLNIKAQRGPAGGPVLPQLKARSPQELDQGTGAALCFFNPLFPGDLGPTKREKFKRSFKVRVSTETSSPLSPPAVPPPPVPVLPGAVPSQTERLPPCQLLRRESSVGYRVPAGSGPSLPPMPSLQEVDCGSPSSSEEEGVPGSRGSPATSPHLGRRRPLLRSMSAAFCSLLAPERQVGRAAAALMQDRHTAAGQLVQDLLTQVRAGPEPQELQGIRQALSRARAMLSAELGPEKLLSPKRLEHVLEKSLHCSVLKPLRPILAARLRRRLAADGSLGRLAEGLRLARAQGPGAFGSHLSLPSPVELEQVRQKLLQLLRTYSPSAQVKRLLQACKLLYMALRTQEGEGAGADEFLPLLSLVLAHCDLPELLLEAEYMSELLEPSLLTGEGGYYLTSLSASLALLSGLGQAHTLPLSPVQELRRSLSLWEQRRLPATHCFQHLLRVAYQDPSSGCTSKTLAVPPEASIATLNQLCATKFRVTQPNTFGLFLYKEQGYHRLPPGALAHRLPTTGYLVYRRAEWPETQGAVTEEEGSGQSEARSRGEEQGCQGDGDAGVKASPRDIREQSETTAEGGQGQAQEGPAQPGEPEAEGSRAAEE

CCOc1ccc(C(=O)C(C)OC(=O)c2nc(Cl)ccc2Cl)cc1 (stereo not given)
IC50 [1]: > 20 µM (inactive)

O=C(Cc1ccc(Br)cc1)Nc1ncc([N+](=O)[O-])s1
EC50 (HEK293 [2]): 3.15 µM (active)
IC50 (HEK293 [3]): 6.55 µM (active)
IC50 (HEK293 [4]): > 20 µM (inactive)
EC50 [5]: > 20 µM (inactive)
IC50 (HEK293 [6]): 7.9 µM (inactive)
EC50 [7]: 0.553 µM (active)
IC50 (HEK293 [8]): > 20 µM (inactive)
EC50 [9]: > 60 µM (not active)

O=C(CCN1C(=O)/C(=C/c2ccccc2Cl)SC1=S)NCCCN1CCOCC1
IC50 [1]: > 20 µM (inactive)

NC1=NC2(CCN(Cc3ccccc3)CC2)n2c(nc3ccccc32)N1
EC50 [10]: 0.299 µM (active)
IC50 [11]: 27.1 µM (inactive)

Cc1sc(NC(=S)NC(=O)c2ccc(C(C)(C)C)cc2)c(C#N)c1C
CC50 [12]: 46.8 µM (active)
IC50 (Vero): 13.9 µM (active)

COc1ccc(NC(=O)CN(c2ccccc2)S(=O)(=O)N(C)C)cc1OC
IC50 (Estrogen receptor beta [13]): 10.1 µM (active)
IC50 (Estrogen receptor beta [14]): > 109 µM (not active)

COC(=O)c1ccc(CSc2nnc(CNC(=O)COc3ccc(Cl)cc3)o2)o1
IC50 [15]: 21.4 µM (inactive)

CC1(OC(=O)C2CCCC2)C(=O)C=C2C=C(c3ccsc3)N(CC3CC3)C=C2C1=O (stereo not given)
IC50 [16]: 64.3 µM (inactive)

Cc1ccc(-c2nc3cc(NS(=O)(=O)c4ccc(C)cc4)ccc3o2)cc1
EC50 [17]: 5.82 µM (active)
EC50 (Streptokinase A): 5.86 µM (active)
EC50 (Streptococcus): 18.1 µM (active)
Absolute IC50 (XBP1) (X-box-binding protein 1): 10 µM

Cc1ccc(C(=O)NC(=C(Cl)Cl)S(=O)(=O)c2ccc(Cl)cc2)cc1
EC50 (HEK293 [2]): 2.2 µM (active)
IC50 (HEK293 [3]): 3.42 µM (active)
IC50 (HEK293 [4]): > 20 µM (inactive)
EC50 [5]: > 20 µM (inactive)
IC50 (HEK293 [6]): 5.03 µM (inactive)
IC50 (HEK293 [8]): > 20 µM (inactive)
EC50 [18]: 7.82 µM (active)

Cc1ccc(-n2c(O)nc3c(C(N)=O)nc(-c4ccc(C)o4)nc32)cc1
Absolute IC50 (XBP1) (X-box-binding protein 1): 10 µM
